{"source": "patent US20260256792A1", "about": "“TREATMENT OF CHRONIC SPONTANEOUS URTICARIA BY ADMINISTERING (R)-2-[3-[4-AMINO-3-(2-FLUORO-4-PHENOXY-PHENYL)PYRAZOLO[3,4-D]PYRIMIDIN-1-YL]PIPERIDINE-1-CARBONYL]-4-METHYL-4-[4-(OXETAN-3-YL)PIPERAZIN-1-YL]PENT-2-ENENITRILE” (priority 2023, published 2026)", "test_system": "moderate-to-severe chronic spontaneous urticaria (CSU)", "assay": "Phase 2 CSU study: urticaria activity score over 7 days (UAS7)", "assay_type": "in vivo, human", "set-up": "key to UAS7 Median / UAS7 Change from baseline Median / UAS7 change from baseline, Q1 / UAS7 change from baseline, Q3 / UAS7 change from baseline, Max / UAS7 Change from baseline LS Mean (SE): UAS7 points; daily UAS score ranges 0–6 points/day, over 7 days", "source_text": "The study comprises a 12 week, randomized, double-blind, placebo-controlled, multi-center, dose-ranging efficacy and safety phase, followed by a 40 week open label extension (OLE) phase (see FIG. 1). The study consists of three phases and an optional OLE phase. […] Clinically, CSU is characterized by the spontaneous and recurrent appearance of pruritic hives. The proposed primary endpoints were the UAS7 at Week 12 in EU and EU reference countries and the ISS7 in the US. Regardless of where a participant was from, all assessments were the same. The UAS7 score is a composite score containing both the HSS7 and the ISS7. This allowed a global assessment of the two key components of urticaria: hives and itch. […] The UAS is a validated PRO measure. […] The daily UAS scores range from 0 to 6 point/day. […] Patients were to complete the UAS using the e-diary. […] The following secondary endpoints were to be analyzed using the same approach as for the primary endpoint: • Change from baseline in UAS7 at Week 4 • Change from baseline in UAS7 at Week 12 (for US and US reference countries) • Change from baseline in ISS7 at Week 12 (except US and US reference countries) • Change from baseline in HSS7 at Week 12 The following responder secondary endpoints were to be analyzed using the Cochran-Mantel-Haenszel test adjusted by region: • Proportion of participants with UAS7<6 at Week 12 • Proportion of participants with UAS7=0 at Week 12 Participants who received selected prohibited medications and/or rescue medications were to be considered as non-responders for time points after the medication usage. For other participants, all available data including those collected during the off-treatment period were to be used to determine the responder/non-responder status. Missing data were to be considered as non-responders.", "key": {"[1]": {"conditions": "Omalizumab-Naïve Population, 400 mg BID, Week 1"}, "[2]": {"conditions": "Omalizumab-Naïve Population, 400 mg BID, Week 2"}, "[3]": {"conditions": "Omalizumab-Naïve Population, 400 mg BID, Week 3"}, "[4]": {"conditions": "Omalizumab-Naïve Population, 400 mg BID, Week 4"}, "[5]": {"conditions": "Omalizumab-Naïve Population, 400 mg BID, Week 12"}, "[6]": {"conditions": "Omalizumab-Naïve Population, 400 mg QPM, Week 1"}, "[7]": {"conditions": "Omalizumab-Naïve Population, 400 mg QPM, Week 2"}, "[8]": {"conditions": "Omalizumab-Naïve Population, 400 mg QPM, Week 3"}}, "data": [{"smiles": "CC(C)(C=C(C#N)C(=O)N1CCC[C@@H](n2nc(-c3ccc(Oc4ccccc4)cc3F)c3c(N)ncnc32)C1)N1CCN(C2COC2)CC1", "note": "[rilzabrutinib, (R)-2-[3-[4-amino-3-(2-fluoro-4-phenoxy-phenyl)pyrazolo[3,4-d]pyrimidin-1-yl]piperidine-1-carbonyl]-4-methyl-4-[4-(oxetan-3-yl)piperazin-1-yl]pent-2-enenitrile]", "values": [{"measurement": "UAS7 Post-baseline Mean (SD)", "setting": "Omalizumab-Naïve Population with Outlier Removed, 400 mg QPM, Week 2", "result": "23.44 (8.97)"}, {"measurement": "UAS7 Post-baseline Mean (SD)", "setting": "Omalizumab-Naïve Population with Outlier Removed, 400 mg QPM, Week 3", "result": "22.01 (9.00)"}, {"measurement": "UAS7 Post-baseline Mean (SD)", "setting": "Omalizumab-Naïve Population with Outlier Removed, 400 mg QPM, Week 4", "result": "21.92 (8.82)"}, {"measurement": "UAS7 Post-baseline Mean (SD)", "setting": "Omalizumab-Naïve Population with Outlier Removed, 400 mg QPM, Week 5", "result": "20.63 (9.18)"}, {"measurement": "UAS7 Post-baseline Mean (SD)", "setting": "Omalizumab-Naïve Population with Outlier Removed, 400 mg QPM, Week 6", "result": "20.21 (10.42)"}, {"measurement": "UAS7 Post-baseline Mean (SD)", "setting": "Omalizumab-Naïve Population with Outlier Removed, 400 mg QPM, Week 7", "result": "21.11 (10.03)"}, {"measurement": "UAS7 Post-baseline Mean (SD)", "setting": "Omalizumab-Naïve Population with Outlier Removed, 400 mg QPM, Week 9", "result": "20.25 (10.25)"}, {"measurement": "UAS7 Post-baseline Mean (SD)", "setting": "Omalizumab-Naïve Population with Outlier Removed, 400 mg QPM, Week 10", "result": "20.27 (10.69)"}, {"measurement": "UAS7 Post-baseline Mean (SD)", "setting": "Omalizumab-Naïve Population with Outlier Removed, 400 mg QPM, Week 11", "result": "21.17 (11.16)"}, {"measurement": "UAS7 Post-baseline Mean (SD)", "setting": "Omalizumab-Naïve Population with Outlier Removed, 400 mg TID, Week 1", "result": "18.29 (9.93)"}, {"measurement": "UAS7 Post-baseline Mean (SD)", "setting": "Omalizumab-Naïve Population with Outlier Removed, 400 mg TID, Week 2", "result": "16.03 (10.59)"}, {"measurement": "UAS7 Post-baseline Mean (SD)", "setting": "Omalizumab-Naïve Population with Outlier Removed, 400 mg TID, Week 3", "result": "15.20 (9.97)"}, {"measurement": "UAS7 Post-baseline Mean (SD)", "setting": "Omalizumab-Naïve Population with Outlier Removed, 400 mg TID, Week 4", "result": "14.65 (9.61)"}, {"measurement": "UAS7 Post-baseline Mean (SD)", "setting": "Omalizumab-Naïve Population with Outlier Removed, 400 mg TID, Week 5", "result": "13.41 (10.60)"}, {"measurement": "UAS7 Post-baseline Mean (SD)", "setting": "Omalizumab-Naïve Population with Outlier Removed, 400 mg TID, Week 6", "result": "14.10 (11.23)"}, {"measurement": "UAS7 Post-baseline Mean (SD)", "setting": "Omalizumab-Naïve Population with Outlier Removed, 400 mg TID, Week 7", "result": "13.54 (9.34)"}, {"measurement": "UAS7 Post-baseline Mean (SD)", "setting": "Omalizumab-Naïve Population with Outlier Removed, 400 mg TID, Week 8", "result": "13.36 (9.81)"}, {"measurement": "UAS7 Post-baseline Mean (SD)", "setting": "Omalizumab-Naïve Population with Outlier Removed, 400 mg TID, Week 9", "result": "12.57 (9.72)"}, {"measurement": "UAS7 Post-baseline Mean (SD)", "setting": "Omalizumab-Naïve Population with Outlier Removed, 400 mg TID, Week 10", "result": "12.61 (9.89)"}, {"measurement": "UAS7 Post-baseline Mean (SD)", "setting": "Omalizumab-Naïve Population with Outlier Removed, 400 mg TID, Week 12", "result": "11.00 (9.90)"}, {"measurement": "UAS7 % Change difference for rilzabrutinib vs. placebo LS Mean (95% CI)", "setting": "[1]", "result": "−25.01", "unit": "%"}, {"measurement": "UAS7 % Change from baseline LS Mean (SE)", "setting": "[1]", "result": "−34.48 (5.64) %"}, {"measurement": "UAS7 Change difference for rilzabrutinib vs. placebo LS Mean (95% CI)", "setting": "[1]", "result": "−6.24"}, {"measurement": "UAS7 Change from baseline LS Mean (SE)", "setting": "[1]", "result": "−9.79 (1.58)"}, {"measurement": "UAS7 Post-baseline Mean (SD)", "setting": "[1]", "result": "19.77 (11.32)"}, {"measurement": "UAS7 % Change difference for rilzabrutinib vs. placebo LS Mean (95% CI)", "setting": "[2]", "result": "−18.28", "unit": "%"}, {"measurement": "UAS7 % Change from baseline LS Mean (SE)", "setting": "[2]", "result": "−36.05 (5.50) %"}, {"measurement": "UAS7 Change difference for rilzabrutinib vs. placebo LS Mean (95% CI)", "setting": "[2]", "result": "−4.55"}, {"measurement": "UAS7 Change from baseline LS Mean (SE)", "setting": "[2]", "result": "−10.44 (1.57)"}, {"measurement": "UAS7 Post-baseline Mean (SD)", "setting": "[2]", "result": "19.59 (10.86)"}, {"measurement": "UAS7 % Change difference for rilzabrutinib vs. placebo LS Mean (95% CI)", "setting": "[3]", "result": "−20.16", "unit": "%"}, {"measurement": "UAS7 % Change from baseline LS Mean (SE)", "setting": "[3]", "result": "−40.11 (5.66) %"}, {"measurement": "UAS7 Change difference for rilzabrutinib vs. placebo LS Mean (95% CI)", "setting": "[3]", "result": "−5.04"}, {"measurement": "UAS7 Change from baseline LS Mean (SE)", "setting": "[3]", "result": "−11.96 (1.67)"}, {"measurement": "UAS7 Post-baseline Mean (SD)", "setting": "[3]", "result": "17.71 (11.91)"}, {"measurement": "UAS7 % Change difference for rilzabrutinib vs. placebo LS Mean (95% CI)", "setting": "[4]", "result": "−23.20", "unit": "%"}, {"measurement": "UAS7 % Change from baseline LS Mean (SE)", "setting": "[4]", "result": "−43.62 (5.88) %"}, {"measurement": "UAS7 Change difference for rilzabrutinib vs. placebo LS Mean (95% CI)", "setting": "[4]", "result": "−5.82"}, {"measurement": "UAS7 Change from baseline LS Mean (SE)", "setting": "[4]", "result": "−12.89 (1.73)"}, {"measurement": "UAS7 Post-baseline Mean (SD)", "setting": "[4]", "result": "15.92 (11.71)"}, {"measurement": "UAS7 Post-baseline Mean (SD)", "setting": "Omalizumab-Naïve Population, 400 mg BID, Week 5", "result": "17.22 (13.36)"}, {"measurement": "UAS7 Post-baseline Mean (SD)", "setting": "Omalizumab-Naïve Population, 400 mg BID, Week 6", "result": "17.02 (12.76)"}, {"measurement": "UAS7 Post-baseline Mean (SD)", "setting": "Omalizumab-Naïve Population, 400 mg BID, Week 7", "result": "15.55 (11.97)"}, {"measurement": "UAS7 Post-baseline Mean (SD)", "setting": "Omalizumab-Naïve Population, 400 mg BID, Week 8", "result": "13.98 (13.06)"}, {"measurement": "UAS7 Post-baseline Mean (SD)", "setting": "Omalizumab-Naïve Population, 400 mg BID, Week 9", "result": "14.64 (14.43)"}, {"measurement": "UAS7 Post-baseline Mean (SD)", "setting": "Omalizumab-Naïve Population, 400 mg BID, Week 10", "result": "15.22 (14.36)"}, {"measurement": "UAS7 Post-baseline Mean (SD)", "setting": "Omalizumab-Naïve Population, 400 mg BID, Week 11", "result": "15.06 (13.80)"}, {"measurement": "UAS7 % Change difference for rilzabrutinib vs. placebo LS Mean (95% CI)", "setting": "[5]", "result": "−17.85", "unit": "%"}, {"measurement": "UAS7 % Change from baseline LS Mean (SE)", "setting": "[5]", "result": "−48.13 (6.91) %"}, {"measurement": "UAS7 Change difference for rilzabrutinib vs. placebo LS Mean (95% CI)", "setting": "[5]", "result": "−4.09"}, {"measurement": "UAS7 Change from baseline LS Mean (SE)", "setting": "[5]", "result": "−14.24 (2.06)"}, {"measurement": "UAS7 Post-baseline Mean (SD)", "setting": "[5]", "result": "15.61 (13.91)"}, {"measurement": "UAS7 % Change difference for rilzabrutinib vs. placebo LS Mean (95% CI)", "setting": "[6]", "result": "−12.19", "unit": "%"}, {"measurement": "UAS7 % Change from baseline LS Mean (SE)", "setting": "[6]", "result": "−21.67 (5.45) %"}, {"measurement": "UAS7 Change difference for rilzabrutinib vs. placebo LS Mean (95% CI)", "setting": "[6]", "result": "−3.51"}, {"measurement": "UAS7 Change from baseline LS Mean (SE)", "setting": "[6]", "result": "−7.06 (1.52)"}, {"measurement": "UAS7 Post-baseline Mean (SD)", "setting": "[6]", "result": "23.81 (8.78)"}, {"measurement": "UAS7 % Change difference for rilzabrutinib vs. placebo LS Mean (95% CI)", "setting": "[7]", "result": "−6.60", "unit": "%"}, {"measurement": "UAS7 % Change from baseline LS Mean (SE)", "setting": "[7]", "result": "−24.37 (5.29) %"}, {"measurement": "UAS7 Change difference for rilzabrutinib vs. placebo LS Mean (95% CI)", "setting": "[7]", "result": "−1.81"}, {"measurement": "UAS7 Change from baseline LS Mean (SE)", "setting": "[7]", "result": "−7.71 (1.52)"}, {"measurement": "UAS7 Post-baseline Mean (SD)", "setting": "[7]", "result": "23.44 (8.97)"}, {"measurement": "UAS7 % Change difference for rilzabrutinib vs. placebo LS Mean (95% CI)", "setting": "[8]", "result": "−8.98", "unit": "%"}, {"measurement": "UAS7 % Change from baseline LS Mean (SE)", "setting": "[8]", "result": "−28.93 (5.48) %"}, {"measurement": "UAS7 Change difference for rilzabrutinib vs. placebo LS Mean (95% CI)", "setting": "[8]", "result": "−2.17"}, {"measurement": "UAS7 Change from baseline LS Mean (SE)", "setting": "[8]", "result": "−9.10 (1.61)"}]}]}
